Experimental data reported in patent EP0185961A2, “1-Phenyl-imidazole-5-carboxylic acid derivatives, process for their preparation and their use as growth regulators” (HOECHST AKTIENGESELLSCHAFT, priority 1984, dated 1986).

Legend:
Roggen = assay: Growth inhibition in cereals, greenhouse tray test, sprayed at 3-leaf stage; type: in vivo; conditions: % of growth increment of untreated controls, read-out: Wuchsshemmung in % bei Roggen; for pest or weed control at 1250 g/ha: 1,25 kg/ha; for pest or weed control at 2500 g/ha: 2,5 kg/ha
From the text: (§1) In Schalenversuchen im Gewächshaus werden junge Getreidepflanzen (Weizen, Gerste, Roggen) im 3-Blattstadium mit erfindungsgemäßen Verbindungen in verschiedenen Wirkstoffkonzentrationen (kg/ha) tropfnaß gespritzt. […]

Weizen = assay: as above; type: in vivo; conditions: % of growth increment of untreated controls (100% = growth standstill), read-out: Wuchsshemmung in % bei Weizen; for pest or weed control at 1250 g/ha: 1,25 kg/ha; for pest or weed control at 2500 g/ha: 2,5 kg/ha
From the text: as §1

Sojabohnen [1] = assay: Growth inhibition in soybeans; conditions: Glycine max, 504 h, read-out: Wuchsshemmung (%)
From the text: (§4) Etwa 10 cm große Sojabohnen werden mit den Wirkstoffzubereitungen tropfnaß bespritzt. Nach 3 Wochen wird bonitiert.
(§5) Die Wuchshemmung wird als prozentualer Wert ermittelt, wobei 100% den Stillstand des Wachstums und 0% ein Wachstum entsprechend dem der unbehandelten Kontrollpflanzen bedeuten.

Reispflanzen [2] = conditions: in vivo
From the text: (§6) Reispflanzen werden in Kleinparzellen (2 m x 2 m) angezogen und im Stadium der maximalen Bestockung mit erfindungsgemäßen Verbindungen behandelt. Die Substanzen werden sowohl durch Spritzung appliziert als auch in das Wasser gegeben.
(§7) 3 Wochen nach der Behandlung wird bei allen Pflanzen der Zuwachs gemessen und die Wuchshemmung in % des Zuwachses der Kontrollpflanzen berechnet. Es wird außerdem auf eine mögliche phytotoxische Wirkung der Verbindungen geachtet.
as §5

Gerste = assay: Growth inhibition in cereals, greenhouse tray test, sprayed at 3-leaf stage; type: in vivo; conditions: % of growth increment of untreated controls, read-out: Wuchsshemmung in % bei Gerste; for pest or weed control at 1250 g/ha: 1,25 kg/ha; for pest or weed control at 2500 g/ha: 2,5 kg/ha
From the text: (§2) In Schalenversuchen im Gewächshaus werden junge Getreidepflanzen (Weizen, Gerste, Roggen) im 3-Blattstadium mit erfindungsgemäßen Verbindungen in verschiedenen Wirkstoffkonzentrationen (kg/ha) tropfnaß gespritzt.
(§3) Es wird außerdem die phytotoxische Wirkung der Verbindung beobachtet.

[3] = tested on: Getreidepflanzen (Weizen, Gerste, Roggen); assay: Phytotoxic effect observed in the cereal growth inhibition test; type: in vivo; conditions: cereals; one cell for 2,5 and 1,25 kg/ha
From the text: as §2, §3

Sojabohnen [4] = conditions: in vivo
From the text: as §4, §5

Reispflanzen [5] = assay: Growth inhibition in paddy rice, small plots; conditions: Oryza sativa, 504 h, read-out: Wuchsshemmung (%)
From the text: as §6, §7, §5

Structure (SMILES) | pest or weed control at 1250 g/ha (Roggen) [%] | pest or weed control at 2500 g/ha (Roggen) [%] | pest or weed control at 1250 g/ha (Weizen) [%] | pest or weed control at 2500 g/ha (Weizen) [%] | pest or weed control at 2500 g/ha (Sojabohnen [1]) [%] | Phytotox. Wirkung (Reispflanzen [2]) | pest or weed control at 1250 g/ha (Gerste) [%] | pest or weed control at 2500 g/ha (Gerste) [%] | Phytotox. Wirkung [3] | Phytotox. Wirkung (Sojabohnen [4]) | pest or weed control at 620 g/ha (Reispflanzen [5]) [%] | pest or weed control at 1250 g/ha (Reispflanzen [5]) [%]
CCc1cccc(CC)c1-n1cncc1C(=O)NCC(=O)OC [Beispiel 61] | 18 | 25 | 13 | 23 | 17 | keine Schäden | 19 | 31 | keine Schäden | keine Schäden | 13 | 20
CCc1cccc(CC)c1-n1cncc1C(=O)NN [Beispiel 65] | 18 | 24 | 14 | 21 | 17 | keine Schäden | 19 | 29 | keine Schäden | keine Schäden | 14 | 21
CCc1cccc(CC)c1-n1cncc1C(=O)NN(C)C [Beispiel 66] | 18 | 25 | 14 | 22 | 18 | keine Schäden | 19 | 31 | keine Schäden | keine Schäden | 12 | 21
CCc1cccc(CC)c1-n1cncc1C(=O)NO [Beispiel 68] | 21 | 27 | 20 | 24 | 26 | keine Schäden | 21 | 34 | keine Schäden | keine Schäden | 18 | 25
CCc1cccc(CC)c1-n1cncc1C(=O)NNC(N)=O [Beispiel 70] | 21 | 25 | 12 | 22 | 19 | keine Schäden | 18 | 27 | keine Schäden | keine Schäden | 14 | 21
CCc1cccc(CC)c1-n1cncc1C(=O)n1cncn1 [Beispiel 76] | 15 | 23 | 13 | 21 | 21 | keine Schäden | 17 | 27 | keine Schäden | keine Schäden | 14 | 19
CCc1cccc(CC)c1-n1cncc1COCc1ccccc1C [Beispiel 95] | 15 | 22 | 14 | 19 | 20 | keine Schäden | 17 | 25 | keine Schäden | keine Schäden | 14 | 18
CCc1cccc(CC)c1-n1cncc1C(=O)NS(=O)(=O)c1ccccc1Cl [Beispiel 103] | 16 | 27 | 16 | 23 | 22 | keine Schäden | 19 | 29 | keine Schäden | keine Schäden | 15 | 21
CCc1cccc(CC)c1-n1cncc1C(=O)OC(=O)c1cncn1-c1c(CC)cccc1CC [Beispiel 115] | 24 | 31 | 14 | 24 | 15 | keine Schäden | 19 | 38 | keine Schäden | keine Schäden | 19 | 28
